Assay results as given in publication PMC7559746 (Pharmaceutics, 2020).
Several values for one entry are separate records, joined by “and”; a condition that tells them apart may be missing. Equal values may be shown once. Read-outs that look alike come from different tables or passages of the source.

How the values were obtained:
[1] = Toxicity in patients (CTCAE version 4.0, patient diaries) per study phase; type: in vivo, human
Description: Toxicity was described as the incidence of toxicity per phase. This was corrected for baseline toxicity and was only taken into account in case of an increase in CTCAE grade per PK sampling day.

[2] = at clinically relevant doses; cited from earlier work
[3] = design: method as in PMID 29065985; details: cited from earlier work
[4] = Sorafenib concentration in 3-mm skin biopsies of patients (LC-MS/MS); type: in vivo, human
Description: A 3-mm skin biopsy was obtained at days 1 and 15 of the study during PK sampling days for pharmacokinetic analysis. Skin biopsies were taken from either the forearm or the shoulder region, but always from the same region at the same timepoint in an individual patient during the two consecutive PK sampling days. If patients had HFSR lesions at the hand at the first PK day, an additional skin biopsy was performed from the thenar eminence region of the hand for pathologic analysis on days 1 and 15. The biopsies were graded according to the scoring for interface dermatitis as used for graft-versus-host disease by an experienced pathologist (J.D.).

clinical = details: human, plasma, oral
Description: Patients were admitted to the hospital on days 1 and 15 of the study for pharmacokinetic blood sampling. […] Blood samples were processed into plasma within 30 min, by vortex mixing and centrifugation for 10 min at 2500× g at 4 °C. Plasma concentrations were determined using a validated liquid chromatography tandem mass spectrometry (LC-MS/MS) method [18], at both the laboratory of Translational Pharmacology in the Erasmus MC, Rotterdam, and the laboratory of Pharmaceutics and Pharmaceutical Chemistry, Ohio State University, OH.
The point estimates and CIs were transformed back to the original scale in order to give the point estimates for the ratio of the geometric means and the CIs. Tmax was analyzed by means of the Wilcoxon signed rank test and described with medians and interquartile ranges. Toxicity was described as the incidence of toxicity per phase. This was corrected for baseline toxicity and was only taken into account in case of an increase in CTCAE grade per PK sampling day.

[5] = plasma, relative difference of geometric means
[6] = plasma, sorafenib monotherapy (day 1)

SMILES: CCCN(CCC)S(=O)(=O)c1ccc(C(=O)O)cc1 [Probenecid, probenecid]
- occurrence of HFSR, rash, anorexia, and fatigue ([1]; during probenecid administration (concomitant with sorafenib)): 65%
- plasma concentrations achieved [2]: higher than 200 µM

SMILES: CNC(=O)c1cc(Oc2ccc(NC(=O)Nc3ccc(Cl)c(C(F)(F)F)c3)cc2)ccn1 [Sorafenib, sorafenib]
- Anorexia, Grade 1–2, patients ([1]; N = 16 per phase): 4
- Constipation, Grade 1–2, patients ([1]; N = 16 per phase): 2
- Diarrhea, Grade 1–2, patients ([1]; N = 16 per phase): 1
- Fatigue, Grade 1–2, patients ([1]; N = 16 per phase): 2
- Fever, Grade 1–2, patients ([1]; N = 16 per phase): 1
- HFSR, Grade 1–2, patients ([1]; N = 16 per phase): 3
- Nausea, Grade 1–2, patients ([1]; N = 16 per phase): 1
- Oral mucositis, Grade 1–2, patients ([1]; N = 16 per phase): 1
- Pain, Grade 1–2, patients ([1]; N = 16 per phase): 1
- Pain, Grade 3, patients ([1]; N = 16 per phase): 1
- Rash, Grade 1–2, patients ([1]; N = 16 per phase): 1
- Vomiting, Grade 1–2, patients ([1]; N = 16 per phase): 0
- Serious adverse events (SAE) ([1]; N = 16 per phase, assumed not related to study drugs): 1
- occurrence of HFSR, rash, anorexia, and fatigue ([1]; during sorafenib monotherapy): 43%
- patients in whom HFSR occurred ([1]; whole study): 10 of 16 patients
- difference in sorafenib plasma AUC between patients with or without liver cirrhosis (90% CI: −32.9% to 30.7%, P = 0.73): −6.3%
- difference in sorafenib plasma Ctrough between patients with or without liver cirrhosis (90% CI: −46.8% to 61.3%, P = 0.81): −7.4%
- AUC(0-t) (human, plasma, oral): 33500 ng·h/mL
- Cmax (human, plasma, oral, Cmax (CV%) geomean, plasma, sorafenib monotherapy (day 1)): 4460 ng/mL
- Tmax (human, plasma, oral, Tmax (IQR) median, plasma, sorafenib monotherapy (day 1)): 3.7 h
- RD sorafenib monotherapy vs. sorafenib + probenecid (90% CI), Cmax [5]: −25.1% (−44.3% to −19.7%)
- RD sorafenib monotherapy vs. sorafenib + probenecid (90% CI), Ctrough [5]: −26.0% (−43.4% to −3.4%)
- Ctrough (CV%) geomean [6]: 2125.5 (60) μg/mL
- decrease of geometric mean plasma AUC0–12 h with concomitant probenecid (vs sorafenib alone, decrease): 27% and 26.8%
- decrease of plasma Cmax with concomitant probenecid (vs sorafenib alone, decrease): 25.1%
- decrease of plasma Ctrough with concomitant probenecid (vs sorafenib alone, decrease): 26.0%
- clinical incidence of HFSR ≥ grade 3 [3]: 20%
- Kp at 15 study day ([4]; human, skin and plasma, oral): 0.00147
- RD sorafenib monotherapy vs. sorafenib + probenecid (90% CI), sorafenib concentration in keratinocytes ([4]; skin biopsy): −28.1% (−46.3% to −3.7%)
- decrease of sorafenib concentration in skin in the presence of probenecid ([4]; vs sorafenib alone, decrease): 28.1%
- Cmax (clinical): 3340 ng/mL
- Tmax (clinical): 2.2 h
- AUC(0-t) (clinical; 500 mg): 24500 ng·h/mL

SMILES: CNC(=O)c1cc(Oc2ccc(NC(=O)Nc3ccc(Cl)c(C(F)(F)F)c3)cc2)cc[n+]1[O-] [Sorafenib-N-oxide, sorafenib-N-oxide]
- RD sorafenib monotherapy vs. sorafenib + probenecid (90% CI), AUC0–12 h [5]: −36.3% (−52.8% to −14.1%)
- RD sorafenib monotherapy vs. sorafenib + probenecid (90% CI), Cmax [5]: −39.2% (−54.6% to −18.7%)
- RD sorafenib monotherapy vs. sorafenib + probenecid (90% CI), Ctrough [5]: −35.2% (−59.7% to 4.3%)
- Cmax (CV%) geomean [6]: 467.3 (77) μg/mL
- Ctrough (CV%) geomean [6]: 271.1 (282) μg/mL
- decrease of geometric mean plasma AUC0–12 h with concomitant probenecid (vs sorafenib alone, decrease): 36.3%
- decrease of plasma Cmax with concomitant probenecid (vs sorafenib alone, decrease): 39.2%
